# Calls of active or inactive are those of the source. No cut-off for these calls is given here.
# How the values were obtained:
# Rattus norvegicus [1] = test: High-ceiling diuretic activity in Wistar rat assessed as drug to urea ratio to cause diuresis at 50 mg/kg, po measured for 5 hrs (reference value: 0.44 +/- 0.05 no unit); type: functional, Urine
# Rattus norvegicus [2] = test: High-ceiling diuretic activity in Wistar rat assessed as drug to urea ratio to increase Na+ level in urine at 50 mg/kg, po measured for 5 hrs by flame photometric analysis (reference value: 0.47 +/- 0.07 no unit); type: functional
# Rattus norvegicus [3] = test: High-ceiling diuretic activity in Wistar rat assessed as drug to urea ratio to increase K+ level in urine at 50 mg/kg, po measured for 5 hrs by flame photometric analysis (reference value: 0.57 +/- 0.08 no unit); type: functional
# Canis familiaris = test: High-ceiling diuretic activity in Beagle dog at 20 mg/kg, po; type: functional, organism-based; parameters: dose 20 mg/kg; settings: Canis lupus familiaris, Urine
Structure (SMILES),Ratio (Rattus norvegicus [1]),Ratio (Rattus norvegicus [2]),Ratio (Rattus norvegicus [3]),Activity (Canis familiaris)
NS(=O)(=O)c1cc(C(=O)O)cc2c1Sc1ccccc1CN2,0.07,0.13,0.05,inactive
NS(=O)(=O)c1cc(C(=O)O)cc2c1Sc1ccccc1C(=O)N2,0.56,0.71,0.62,inactive
COC(=O)c1cc2c(c(S(N)(=O)=O)c1)Oc1ccccc1C(=O)N2,0.79,1.24,0.63,–
NS(=O)(=O)c1cc(C(=O)O)cc2c1Oc1ccccc1CN2,0.47,1,0.9,–
CCCCNc1cc(C(=O)O)cc(S(N)(=O)=O)c1Oc1ccccc1 [BUMETANIDE],2.6,4.66,0.97,–
COC(=O)c1cc2c(c(S(N)(=O)=O)c1)Sc1ccccc1C(=O)N2,0.25,0.42,0.41,–
